Results on 26 compounds are retold here after US6603046B1, “Bis-aromatic a,β-unsaturated ketones” (Lica Pharmaceuticals A/S, priority 1992, dated 2003).

Where two headings read alike, the source gives them in different places.

One series deals with L. major promastigotes. The experiment in a line: L. major promastigotes from 4-days cultures, 3H-thymidine uptake (Examples 5, 14). It is filed as cell-based, Leishmania major. The following applies: for inhibition at 0.5 µg/mL / inhibition at 1 µg/mL / inhibition at 5 µg/mL / inhibition at 10 µg/mL / inhibition at 20 µg/mL: Leishmania major; for inhibition at 0.5 µg/mL: 0.5 μg/ml; for inhibition at 1 µg/mL: 1 μg/ml; for inhibition at 5 µg/mL: 5 μg/ml; for inhibition at 10 µg/mL: 10 μg/ml; for inhibition at 20 µg/mL: 20 μg/ml. Here is the method: Parasite cultures. The same parasite culture as described in Example 4. Promastigotes were harvested on day 4 of the culture and used for the parasiticidal assay.
Effect on promastigotes. […] Following incubation, […] of ^3H-thymidine was added to each well and further incubated for 18 hrs. Promastigotes were then harvested on filter paper by means of a cell harvester (Skatron, Lierbyen, Norway), extensively washed with distilled water and counted in a scintillation counter (Minaxi Ti-Carb 4000, United Technologies, Packard, USA).
L. major promastigotes. The L. major promastigotes were prepared as described in Example 4 and harvested after 4 days.

The next series deals with human lymphocytes. The experiment in a line: Lymphocyte Proliferation Assay, 3H-thymidine incorporation (Example 13). The following applies: for inhibition at 0.5 µg/mL / inhibition at 1 µg/mL / inhibition at 5 µg/mL / inhibition at 10 µg/mL: Homo sapiens, Lymphocyte, read-out: inhibition of lymphocytes (lower figure).
Setting [1] is: read-out: percentage inhibition of 3H-thymidine uptake (mean ± SEM), Table 5.1.
Where [2] appears, read: Table 14.1, read-out: percentage inhibition of promastigotes (upper figure).

Consider `COCCOCOc1ccc(C(=O)/C=C/c2ccc(OC)cc2OC)cc1`, for which, in the series with L. major promastigotes (setting [1]), the inhibition at 0.5 µg/mL is 20%, the inhibition at 1 µg/mL is 14%, the inhibition at 5 µg/mL was 31% and the inhibition at 10 µg/mL amounted to 60.5 ± 5.6%.

As to `O=C(/C=C/c1ccc(O)c(O)c1)c1ccc(O)cc1O`, in the series with L. major promastigotes (setting [2]), the inhibition at 0.5 µg/mL amounted to 7%, the inhibition at 1 µg/mL worked out at 8%, the inhibition at 5 µg/mL stood at 4.2% and the inhibition at 10 µg/mL is 10.6%. Further, in the series on human lymphocytes, the inhibition at 0.5 µg/mL is 0%, the inhibition at 1 µg/mL came out at 1%, the inhibition at 5 µg/mL is 12% and the inhibition at 10 µg/mL is 51%.

Consider `O=C(/C=C/c1ccccc1)c1ccc(F)cc1`, for which, in the series with L. major promastigotes (setting [2]), the inhibition at 5 µg/mL was found to be 88% and the inhibition at 10 µg/mL was found to be 99%.

Regarding `COc1cc(OC)c(/C=C/C(=O)c2ccc(O)cc2)c(OC)c1`, in the series with L. major promastigotes (setting [2]), the inhibition at 0.5 µg/mL came to 25 ± 9.5%, the inhibition at 1 µg/mL was found to be 25.6 ± 10.9%, the inhibition at 5 µg/mL stood at 23.6 ± 10.9% and the inhibition at 10 µg/mL was found to be 25.1 ± 17.3%. Moreover, in the series on human lymphocytes, the inhibition at 0.5 µg/mL came out at 0%, the inhibition at 1 µg/mL was found to be 0%, the inhibition at 5 µg/mL is 48% and the inhibition at 10 µg/mL was 63.6%.

Regarding `COc1ccc(/C=C/C(=O)c2ccc(OC)cc2)cc1`, in the series on L. major promastigotes (setting [2]), the inhibition at 0.5 µg/mL stood at 11.7 ± 9.2%, the inhibition at 1 µg/mL is 8.3 ± 4.6%, the inhibition at 5 µg/mL worked out at 35.6 ± 23.4% and the inhibition at 10 µg/mL amounted to 51.8 ± 15.8%. In the series with human lymphocytes, the inhibition at 0.5 µg/mL was determined as 0%, the inhibition at 1 µg/mL is 0%, the inhibition at 5 µg/mL stood at 0% and the inhibition at 10 µg/mL stood at 0%.

As for `C=CCOc1ccc(C(=O)/C=C/c2ccccc2OC)cc1`, in the series with L. major promastigotes (setting [2]), the inhibition at 0.5 µg/mL came out at 20.9 ± 7.7%, the inhibition at 1 µg/mL stood at 25.8 ± 15.3%, the inhibition at 5 µg/mL was found to be 52.8 ± 19.1% and the inhibition at 10 µg/mL worked out at 76.6 ± 22.4%. Moreover, in the series on human lymphocytes, the inhibition at 0.5 µg/mL was 0%, the inhibition at 1 µg/mL turned out to be 0%, the inhibition at 5 µg/mL is 1.1% and the inhibition at 10 µg/mL is 80.1%.

Consider `COc1ccc(/C=C/C(=O)c2ccccc2OCC=C(C)C)c(OC)c1`, for which, in the series with L. major promastigotes (setting [2]), the inhibition at 0.5 µg/mL stood at 4.3%, the inhibition at 1 µg/mL is 1.8%, the inhibition at 5 µg/mL amounted to 49% and the inhibition at 10 µg/mL was 83.2%. In the series on human lymphocytes, the inhibition at 0.5 µg/mL turned out to be 7.1%, the inhibition at 1 µg/mL is 6.6%, the inhibition at 5 µg/mL is 8.7% and the inhibition at 10 µg/mL turned out to be 35.9%.

`C=CCOc1ccc(C(=O)/C=C/c2c(OC)cc(OC)cc2OC)cc1`: in the series on L. major promastigotes (setting [2]), the inhibition at 0.5 µg/mL was in the range of 25 to 44%, the inhibition at 1 µg/mL lay in the range of 15 to 46%, the inhibition at 5 µg/mL was in the range of 14 to 50% and the inhibition at 10 µg/mL lay within 22 to 49%. Also, in the series on human lymphocytes, the inhibition at 0.5 µg/mL amounted to 8%, the inhibition at 1 µg/mL is 12%, the inhibition at 5 µg/mL came to 24% and the inhibition at 10 µg/mL was found to be 48%.

Consider `C=CCOc1ccc(C(=O)/C=C/c2cc(OC)c(OC)c(OC)c2)cc1`, for which, in the series with L. major promastigotes (setting [2]), the inhibition at 0.5 µg/mL was 11 to 45%, the inhibition at 1 µg/mL fell in the range of 16 to 47%, the inhibition at 5 µg/mL was 44 to 60% and the inhibition at 10 µg/mL fell in the range of 86 to 91%. Moreover, in the series on human lymphocytes, the inhibition at 0.5 µg/mL is 4%, the inhibition at 1 µg/mL was 4%, the inhibition at 5 µg/mL was determined as 38% and the inhibition at 10 µg/mL stood at 98%.

Turning to `C=CCOc1ccc(C(=O)/C=C/c2cc(OC)c(OC)cc2OC)cc1`, in the series with L. major promastigotes (setting [2]), the inhibition at 0.5 µg/mL worked out at 24 ± 12%, the inhibition at 1 µg/mL worked out at 23.8 ± 12.5%, the inhibition at 5 µg/mL was determined as 23.2 ± 12.8% and the inhibition at 10 µg/mL worked out at 28.8 ± 16%. In the series with human lymphocytes, the inhibition at 0.5 µg/mL was determined as 0%, the inhibition at 1 µg/mL was found to be 0%, the inhibition at 5 µg/mL stood at 0% and the inhibition at 10 µg/mL is 27.6%.

Take `COCCOCOc1ccc(C(=O)/C=C/c2ccc(OCC=C(C)C)cc2OC)cc1`: in the series with L. major promastigotes (setting [2]), the inhibition at 0.5 µg/mL came to 11.5%, the inhibition at 1 µg/mL stood at 14%, the inhibition at 5 µg/mL was 33.1% and the inhibition at 10 µg/mL is 61.5%. Besides, in the series on human lymphocytes, the inhibition at 0.5 µg/mL was 0%, the inhibition at 1 µg/mL came out at 8.1%, the inhibition at 5 µg/mL amounted to 14.1% and the inhibition at 10 µg/mL came to 28.3%.

Turning to `COc1ccc(/C=C/C(=O)c2ccc(OCOC(=O)C(C)(C)C)cc2)c(OC)c1`, in the series with L. major promastigotes (setting [2]), the inhibition at 0.5 µg/mL came out at 3.9%, the inhibition at 1 µg/mL was found to be 0%, the inhibition at 5 µg/mL is 7.9% and the inhibition at 10 µg/mL amounted to 28.6%. In addition, in the series with human lymphocytes, the inhibition at 0.5 µg/mL stood at 7.1%, the inhibition at 1 µg/mL was found to be 8.2%, the inhibition at 5 µg/mL was determined as 9% and the inhibition at 10 µg/mL was found to be 32.7%.

Turning to `O=C(c1ccccc1)C1OC1c1ccccc1` (centres unmarked), in the series with L. major promastigotes (setting [2]), the inhibition at 0.5 µg/mL was 28.4 ± 13%, the inhibition at 1 µg/mL came out at 33.4 ± 15.4%, the inhibition at 5 µg/mL worked out at 73.2 ± 17.8% and the inhibition at 10 µg/mL turned out to be 88 ± 7.5%. In the series on human lymphocytes, the inhibition at 0.5 µg/mL was 0%, the inhibition at 1 µg/mL came out at 0%, the inhibition at 5 µg/mL was 2% and the inhibition at 10 µg/mL was 85.4%.

On to `COc1ccc(CCC(=O)c2ccco2)c(OC)c1`, for which, in the series with L. major promastigotes (setting [2]), the inhibition at 0.5 µg/mL worked out at 9.5%, the inhibition at 1 µg/mL came to 9.4%, the inhibition at 5 µg/mL is 55.1% and the inhibition at 10 µg/mL came to 89.6%. Moreover, in the series on human lymphocytes, the inhibition at 0.5 µg/mL stood at 3.6%, the inhibition at 1 µg/mL was found to be 11.7%, the inhibition at 5 µg/mL is 33.6% and the inhibition at 10 µg/mL turned out to be 41.9%.

Take `COc1ccc(CCC(=O)c2ccc[nH]2)c(OC)c1`: in the series on L. major promastigotes (setting [2]), the inhibition at 0.5 µg/mL was found to be 0.6%, the inhibition at 1 µg/mL was 9.4%, the inhibition at 5 µg/mL was found to be 18.5% and the inhibition at 10 µg/mL stood at 40.6%. Moreover, in the series on human lymphocytes, the inhibition at 0.5 µg/mL is 10%, the inhibition at 1 µg/mL stood at 2%, the inhibition at 5 µg/mL was determined as 20% and the inhibition at 10 µg/mL stood at 41.9%.

Consider `COc1ccc(CCC(=O)c2ccc(O)cc2)c(OC)c1` [3-(2,4-dimethoxyphenyl)-1-(4-hydroxyphenyl)propan-1-on, reference compound], for which the “activity against Leishmania parasites in vitro” value in the series with L. major promastigotes is listed as “very low activity”.

As for `O=C(/C=C/c1ccccc1)c1ccccc1` [chalcone, reference compound], the “activity against Leishmania parasites in vitro” value in the series with L. major promastigotes is recorded as “very high activity”. Also, the “toxicity against human lymphocytes” value in the series with human lymphocytes is “extremely high toxicity”.

With `O=C(/C=C/c1ccccc1)c1ccc(O)cc1` [drawing 53], in the series on L. major promastigotes (setting [1]), the inhibition at 1 µg/mL is 35.9%, the inhibition at 5 µg/mL is 70.8%, the inhibition at 10 µg/mL is 82.8% and the inhibition at 20 µg/mL is 91.9 ± 2.1%.

Turning to `O=C(/C=C/c1ccc(O)cc1)c1ccccc1` [drawing 54], in the series on L. major promastigotes (setting [1]), the inhibition at 1 µg/mL was 39.1%, the inhibition at 5 µg/mL was 70.1%, the inhibition at 10 µg/mL was 84.5% and the inhibition at 20 µg/mL was 94.3 ± 1.6%.

Consider `COc1ccc(/C=C/C(=O)c2ccc(O)cc2)c(OC)c1` [drawing 55], for which, in the series with L. major promastigotes (setting [1]), the inhibition at 0.5 µg/mL was 19.4%, the inhibition at 1 µg/mL was 27.3%, the inhibition at 5 µg/mL was 61.8% and the inhibition at 10 µg/mL stood at 91.9 ± 4.6%.

In the case of `C=CCOc1ccc(C(=O)/C=C/c2ccc(OC)cc2OC)cc1` [drawing 56], in the series with L. major promastigotes (setting [1]), the inhibition at 0.5 µg/mL is 7.5%, the inhibition at 1 µg/mL was 17.5%, the inhibition at 5 µg/mL is 64.5% and the inhibition at 10 µg/mL came out at 84.3 ± 3.5%.

Regarding `COCOc1ccc(C(=O)/C=C/c2ccc(OC)cc2OC)cc1` [drawing 58], in the series with L. major promastigotes (setting [1]), the inhibition at 0.5 µg/mL is 8.5%, the inhibition at 1 µg/mL was 18.1%, the inhibition at 5 µg/mL was 56.3% and the inhibition at 10 µg/mL came out at 65 ± 5.9%.

Take `COc1cc(/C=C/C(=O)c2ccc(O)cc2O)ccc1O` [drawing 59]: in the series on L. major promastigotes (setting [1]), the inhibition at 0.5 µg/mL was 7.8%, the inhibition at 1 µg/mL was 14.3%, the inhibition at 5 µg/mL was 66.7% and the inhibition at 10 µg/mL was 83.3 ± 4.6%.

With `O=C(/C=C/c1ccccc1)c1ccccc1` [drawing 60], in the series with L. major promastigotes (setting [2]), the inhibition at 0.5 µg/mL was 21.6%, the inhibition at 1 µg/mL was 34.8%, the inhibition at 5 µg/mL turned out to be 91.9% and the inhibition at 10 µg/mL was determined as 97.3%. Moreover, in the series with human lymphocytes, the inhibition at 0.5 µg/mL worked out at 2%, the inhibition at 1 µg/mL came out at 7.3%, the inhibition at 5 µg/mL was 91% and the inhibition at 10 µg/mL was determined as 100%.

Consider `CC(C)=CCc1c(O)ccc(C(=O)/C=C/c2cc(O)c3c(c2)C=CC(C)(C)O3)c1O` [drawing 97], for which, in the series on L. major promastigotes (setting [2]), the inhibition at 10 µg/mL was 18%.

Take `CC(C)=CCc1cc(/C=C/C(=O)c2ccc(O)c(CC=C(C)C)c2O)ccc1O` [drawing 98]: in the series with L. major promastigotes (setting [2]), the inhibition at 1 µg/mL was 12%, the inhibition at 5 µg/mL was determined as 28% and the inhibition at 10 µg/mL was 91%.

In general, inhibition refers to the drop in the measured response relative to a control, in per cent.
